Here are results for four compounds from patent US20140294849A1, “COMPOSITIONS AND USES” (GLAXOSMITHKLINE BIOLOGICALS SA, priority 2011, published 2014).

Where two headings read alike, the source gives them in different places. No end group written: not given here.

In data set [1] the test system is cytokines and chemokines in sera. It counts as in vivo, C57BL/6 mice. The following applies: for levels of TNF-α and IL-6: i.p. How it is done: Mice (n=5) received 50 μl of adjuvant formulations by i.m. injection for the PBS, AS03, AS01B and AS04D. PBS or LPS or MPL were injected using the intraperitoneal route and sera were collected at 2 and 6 h time points. Whole blood was collected by cardiac puncture from mice and centrifuged on a vacutainer blood collection tube containing gel for serum separation. Serum samples were cleared by centrifugation and stored at −80° C. until analysis. Protein levels in the cleared sera samples were measured by cytokine-specific beads (Millipore, USA) using the Luminex™ platform.
To determine whether the low inflammatory response observed in the previous in vitro experiments can be reproduced in vivo, we measured several cytokines and chemokines in the sera of C57BL/6 mice 2 and 6 h following a single intraperitoneal injection of either MPL or LPS. […] Noteworthy, IL-1β is not increased in response to MPL in contrast to LPS treatment.

Data set [2] deals with spatial learning and memory. Kind of data set: T-water maze in APP/PS1 mice. Type of data set: in vivo, APPSwe/PS1 mice. Conditions: for behaviour as assessed by T water maze testing: Example 21, twelve weekly injections, vs non treated mice; for cognitive functions, T-water maze: Example 22, vs PBS. How it is done:
Five groups of APPSwe/PS1 mice received one a week for a period of 12 weeks the following treatment: • Gr1: APPSwe/PS1+NaCl 0.9% n(=20), i.p. injections • Gr4: APPSwe/PS1+CRX527 (20 μg/mouse, 130 μl, n=10), i.p. injections • Gr5: […] (50 μg/mouse, 130 μl, n=10), i.p. injections • Gr8 APPSwe/PS1+AS15 ( 1/10th of human dose, 50 μl, n=10), i.m. injections • Gr9: APPSwe/PS1+AS01B ( 1/10th of human dose, 50 μl, n=10), i.m. injections
Mice were tested during the “light on” phase of the day. Behavioral experimenter was blinded to the genetic and treatment status of animals. To assess hippocampal-dependent spatial learning and memory, mice were trained in the T-water maze task. In this paradigm, we evaluate the mouse's ability to remember the spatial location of submerged platform. The T-maze apparatus (length of stem, 64 cm; length of arms, 30 cm; width, 12 cm; height of walls, 16 cm) was made of clear fiberglass and filled with water (23±1° C.) at a height of 12 cm. A platform (11×11 cm) was placed at the end of the target arm and was submerged 1 cm below the surface. The acquisition phase allows to evaluate animals for left-right spatial learning. During the first two trials, platforms were placed on each arms of the maze to test the spontaneous turning preference of the mouse. After these two trials, the least chosen arm was reinforced by the escape platform. The mice were placed in the stem of the T-maze and choose to swim either left or right until they found the submerged platform and escape to it, to a maximum of 60 s. After reaching the platform, the mice remained on it for 20 s and then were immediately placed back in the maze. […] Repeated trials were presented on the same day up to a maximum of 48 trials. A rest period of at least 10-15 min intervened between each block of 10 trials. A mouse was considered to have learned the task when it made no errors in a block of five consecutive trials. The reversal learning phase was then conducted 48 h later. During this phase, the same protocol was repeated, except that the mice were trained to find the escape platform on the opposite side to that on which they had learned on acquisition phase. The number of trials to reach the criterion (five of five correct choices made on consecutive trials) was measured as well as the latency to find the escape platform.

Data set [3] deals with Lineage-CD11b+ monocytes in peripheral blood. Kind of data set: Monocyte analysis and counting after adjuvant injection in mice. Type of data set: in vivo, C57BL/6 mice. On the procedure:
(§1) 24-Hours after injection of the TLR adjuvants, peripheral blood was drawn from C57BL/6 mice via cardiac puncture with lithium-heparin as anticoagulant. Red blood cell lysis was performed twice on pooled blood with Ammonium Chloride-based Buffer (Sigma, Steinheim, Germany) and cells were counted with the EasyCount™ System (Immunicon). […] Cells were finally washed three times and fixed for 15 min. with a 2% paraformaldehyde solution in PBS. Fluorescence minus one (FMO) controls were always included in the assays for fluorescent compensation setting. Samples were acquired on a flow cytometer (BD FACSCanto II) and data analyzed with the FACSDiva software (BD Biosciences). Monocytes were identified by their Side/Forward scatter properties and gated as CD3-/CD45R/B220-/Ly-6G-/NK1.1-(Lineage-)/CD11b+ cells. CD11b+ monocyte frequency was reported as a percentage of the total cells excluding debris.
as §1, with “24 hours” for “24-Hours”, “each immunomodulator,” for “the TLR adjuvants,”, “min” for “min.”, “monocytes” for “monocyte”
Cells were finally washed twice and fixed for 15 min. with a 2% paraformaldehyde solution in PBS. FMOs controls were always included in the assays. Samples were acquired on a flow cytometer (BD FACSCanto II) and data analyzed with the FACSDiva software (BD Biosciences). Monocytes were identified and counted by their Side/Forward scatter properties, excluding debris and gated as CD3-/CD45R/B220-/Ly-6G-/NK1.1-(Lineage-)/CD11 b+ cells.

The subject of another data set is Aβ plaques. Kind of data set: Aβ total plaque loading, stereological analysis of brain sections. It counts as in vivo, APPSwe/PS1 mice.
Data set [4] relates to human microglial cell line CHME. Kind of data set: Phagocytosis of beta-amyloid 1-42 peptide by CHME cells. It counts as cell-based. The following applies: Example 18. On the procedure: Phagocytosis of beta-amyloid 1-42 peptide by the human microglial cell line CHME was observed after the addition of TLR2 agonist containing adjuvants Protollin and Pam3CysLip peptide. […] The synthetic peptide sequence of the Pam3Cys Lip peptide is described herein: Pam3Cys—SQ EPAAPAAEAT PAAEAP. Protollin was used at concentration 1 ug per ml based on the LPS content from Shigella flexneri. Pam3Cys lip peptide was used at concentration of 5 ug per ml of the pure tri-palmitoylated peptide.
Additionally, cells were imaged using 42 HiLyte 488 Fluo (Anaspec, Inc.) at 2 ug per ml in DMEM complete media (Invitrogen). Lysotracker red staining was performed and slides were mounted and co-stained with DAPI to show the nucleus (blue). […] Lysotracker red reagent was purchased from Invitrogen and used as manufacturer recommendations.

Data set [5] concerns CD11b+ peripheral blood monocytes. Kind of data set: Ex vivo uptake assay of Aβ1-42. It counts as cell-based, C57BL/6 mice. The following applies: Example 19, FIG. 20; QS21 5 μg i.m. How it is done:
Preparation of cells: Peripheral blood was drawn from C57BL/6 mice via cardiac puncture with lithium-heparin as anticoagulant, 24-hours after injection of the adjuvants used herein. Red blood cell lysis was performed twice on pooled blood with Ammonium Chloride-based Buffer (Sigma, Steinheim, Germany) and cells were counted with the EasyCount™ System (Immunicon). […]
FACS analysis: cells were harvested after incubation with fluorescent Aβ peptide with Trypsin/EDTA and cold PBS and washed three times. 500,000 cells were incubated in 96-well plate for 10 min. on ice in the presence of Rat anti-Mouse CD16/CD32 (clone 2.4G2—BD Fc Block™) and further stained for 30 min. with a combination of the following directly conjugated antibodies at their pre-determined optimal concentration: PE-Hamster anti-Mouse CD3 (clone 145-2C11), Rat anti-Mouse CD45R/B220 (clone RA3-6B2), Rat anti-Mouse Ly-6G (clone 1A8), Mouse anti-Mouse NK1.1 (clone PK136), APC-conjugated Rat anti-Mouse CD11b (clone M1/70), PE-Cy7-conjugated Hamster anti-Mouse CD11c (clone HL3), (all from BD PharMingen). […]
Samples were acquired on a flow cytometer (BD FACSCanto II) and data analyzed with the FACSDiva software (BD Biosciences). […]

Take “3-O-desacyl-4′-monophosphoryl lipid A [3D MPL]”: the figures for the “levels of TNF-α and IL-6” value in data set [1] (2 h post injection) and in data set [1] (after 6 h) were “modest increase” and “essentially abolished”, respectively. Also, the innate cytokine profile entry in data set [1] (Example 28, 3D MPL i.p., AS01B i.m., data not shown) is listed as “attenuated cytokine profile compared to LPS”. Besides, the “most of the cytokine and chemokine levels” value in data set [1] (Example 28, single intraperitoneal injection, 2 and 6 h) is recorded as “substantially lower than those of LPS-treated animals”. In addition, the IL-1β result in data set [1] (single i.p. injection, in contrast to LPS) is “not increased”. Further, in data set [2] (ANOVA-2 tests, FIG. 27C), the “T-water tests, combined data of Example 21 and 22” value is on record as “statistical significance”. In addition, the “behaviour as assessed by T water maze testing” value in data set [2] is recorded as “significant improvements in behaviour”. In addition, the “cognitive functions, T-water maze” value is reported as “significant improvement of their cognitive functions” in data set [2] (i.m. 12x weekly, CRX601 2 μg, CRX601 2 ug in AS03, 3D MPL 5 ug, AS01B 1/10 human dose, unpaired t-tests) and “significant improvement of their cognitive functions” in data set [2] (intra peritoneal 50 ug per mouse, 12x weekly). Besides, the “number of CD11b+ monocytes compared to the PBS control” value in data set [3] (Example 9, 5 ug/mouse, i.m.) was “about double”. Besides, the monocyte numbers entry in data set [3] (Example 10, single i.m. injection, at 5 and 25 ug/mouse dose) is “stimulate monocyte numbers”. In addition, the “plaque loading, combined data of Example 21 and 22” value with Aβ plaques (ANOVA-2, P<0.01, intra peritoneal) is on record as “statistical significant plaque loading reduction”. In addition, in the data set on Aβ plaques (Example 21, FIG. 26, immunofluorescence 6E10), the “brain histology of amyloid plaques” value was “more compacted plaques with less total area”. For the same compound, in the data set on Aβ plaques (Example 21, 50 μg/mouse i.p., once a week for 12 weeks), the “Amyloid beta plaque number” value is on record as “statistically significant reduction in Amyloid beta plaque number”. For the same compound, the “Aβ amyloid plaque level in the brain” value in the data set with Aβ plaques (Example 22, FIG. 27B, intra peritoneal route) is given as “trend of reducing the Aβ amyloid plaque”.

For the compound `CCCCCCCCCCC[C@H](CC(=O)N[C@H]1[C@H](OC[C@H](NC(=O)C[C@@H](CCCCCCCCCCC)OC(=O)CCCCCCCCC)C(=O)O)O[C@H](CO)[C@@H](OP(=O)(O)O)[C@@H]1OC(=O)C[C@@H](CCCCCCCCCCC)OC(=O)CCCCCCCCC)OC(=O)CCCCCCCCC` [CRX527], the “behaviour as assessed by T water maze testing” value in data set [2] is listed as “significant improvements in behaviour”.

Consider “Pam3Cys—SQ EPAAPAAEAT PAAEAP (Pam3Cys-SQEPAAPAAEATPAAEAP) [Pam3CysLip peptide, TLR2 agonist, tri-palmitoylated peptide]”, for which the phagocytosis in data set [4] (5 ug per ml, pre-incubation 18 hrs) is 86 % of cells. Besides, the amyloid phagocytic activity result in data set [4] (compared to PBS, Protollin 1 ug per ml, Pam3Cys lip peptide 5 ug per ml) was “higher amyloid phagocytic activity”.

On to QS21 [reference compound], for which the “Aβ uptake by peripheral blood monocytes” value in data set [5] is “does not promote Aβ uptake”. Besides, the “activated Ly6C+ monocytes” value in data set [3] (Example 19, single i.m. injection, 24 hrs) is 75%. Also, the number of monocytes in data set [3] (Example 19, single i.m. injection, after 24 hrs, QS21 5 μg) is 9.1 % of total peripheral white blood cells.
